Experimental findings from patent publication US9447069B2, “ROR modulators and their uses” (INNOV17 LLC, priority 2012, dated 2016) are described below.

Structures are written as SMILES. Like-named read-outs stand apart in the source and are kept apart here.

For test [1], the system named is IL-17F. Description: TH17 cytokine inhibition measured by ELISA (IL-17F). The format is cell-based. Particulars: 120 h; human TH17 cells, 5 days differentiation, ELISA of supernatants, 0.1% DMSO. The procedure: (§1) Peripheral blood mononuclear cells (PBMCs) were sourced from freshly prepared leukocyte enriched plasma (buffy coat) from healthy volunteers from which PBMCs were isolated by density gradient centrifugation using Ficoll-Paque™ PLUS (GE Healthcare). Naïve CD4+ T cells were isolated using the Naïve CD4+ T cell Isolation Kit II (Miltenyi Biotec) as per manufacturer's instructions. CD4+ T cells were plated at 5×10^4 cells/well in 96 well plates pre-coated with immobilized human (h)-αCD3 antibody (eBioscience) then differentiated to TH17 cells using h-αCD28, h-αIFN-γ, h-αIL-4, h-IL-6, h-IL-23, h-IL-1β, h-TGF-β1 (eBioscience) and maintained in a cell culture incubator at 37° C. with 5% CO2 in TexMACS Medium (Miltenyi Biotec) supplemented with 1% Penicillin/Streptomycin (Lonza) over 5 days.
Human CD4+ T cells were differentiated to TH17 cells as described in the presence or absence of various concentrations of compounds in a final concentration of 0.1% DMSO in TexMACS medium. Supernatants were collected and stored at −20° C. until they were to be assayed for IL-17A, IL-17F, IL-17AF, IL-21 and/or IL-22 levels as determined by Ready-Set-Go ELISA kits (eBioscience) as per manufacturer's instructions. Endpoint absorbance was read at 450 nm and 570 nm according to manufacturer's instructions (eBioscience) using a microplate reader (Perkin Elmer). The percentage of cytokine inhibition was calculated with reference to DMSO treated cells and the IC50s were determined by GraphPad Prism software and presented in the table below.
(In general: ELISA stands for enzyme-linked immunosorbent assay.)

The test system of a further test is TH17 cells. Nature of the test: TH17 cellular proliferation (Prestoblue). It is filed as cell-based. Particulars: Homo sapiens, 120 h; 3 μM compound, after 5 day TH17 differentiation, relative to DMSO treated TH17 cells; read-out: % change in TH17 cell number. As to the method: as §1
Cellular proliferation was assessed in the presence or absence of 3 μM compound using Prestoblue® Cell Viability Reagent (Life Technologies) as per manufacturer's instructions using absorbance as the output measured by a microplate reader (Perkin Elmer) after 30 minutes of incubation. A standard curve developed by plotting varying cell numbers versus absorbance was used to assess differences in cellular proliferation between compound treated or untreated cells after the 5 day TH17 differentiation period.

Test [2] relates to IL-17F. Description: Real-Time qRT-PCR gene expression in TH17 cells (IL-17F). The format is cell-based, human. More on the design: key: A: No change in gene expression observed relative to DMSO treated Th17 cells; B: Decreased gene expression observed relative to DMSO treated Th17 cells; C: Increased gene expression observed relative to DMSO treated Th17 cells. Particulars: normalized to six reference genes. The procedure:
as §1
(§2) RNA was isolated from TH17 cells and cDNA was synthesized using the Verso cDNA kit (Thermo Scientific) as per manufacturer's instructions. IL-17A, IL-17F, IL-21, IL-22, G-CSF, IL-23R and FOXP3 gene expression were determined for compound treated and untreated TH17 cell samples using Solaris qPCR Gene expression assays (Thermo Scientific) with an iCycler iQ Real-Time PCR Detection System (Bio-Rad). Individual gene expression was normalized to a panel of six reference genes (ACTB, TBP, HPRT1, PGK1, TFRC and PPIA) (Thermo Scientific) and analyzed by REST 2009 (Qiagen) in accordance to MIQE guidelines (Bustin et al. (2009) Clin. Chem, 55:611-622). The effects of compounds on TH17 cytokine gene expression are presented as fold change in mRNA levels of compound treated TH17 cells relative to DMSO treated cells in the table below.
A general note: In qPCR the cycle at which signal appears reflects the starting amount.

Another test has as its system FOXP3. Description: Real-Time qRT-PCR gene expression in TH17 cells (FOXP3). The format is cell-based, human. Also noted: key: A: No change in gene expression observed relative to DMSO treated Th17 cells; B: Decreased gene expression observed relative to DMSO treated Th17 cells; C: Increased gene expression observed relative to DMSO treated Th17 cells. Particulars: normalized to six reference genes. As to the method:
as §1, §2

Another test has as its target T1, RORα LBD (Homo sapiens, UniProt P35398).
T1 construct: purified GST-tagged (i) RORγ LBD or (ii) RORα LBD; purchased Life Technologies
T1 sequence (P35398 272-510 limits assumed): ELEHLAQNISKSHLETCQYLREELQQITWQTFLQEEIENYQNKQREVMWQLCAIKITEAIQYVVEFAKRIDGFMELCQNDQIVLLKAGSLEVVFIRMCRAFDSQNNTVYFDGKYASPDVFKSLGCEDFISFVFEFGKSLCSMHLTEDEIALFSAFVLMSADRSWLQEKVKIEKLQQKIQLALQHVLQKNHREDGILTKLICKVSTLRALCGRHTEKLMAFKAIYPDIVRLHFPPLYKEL
Description: TR-FRET NCoR1-D2 co-repressor recruitment to RORα LBD. It is filed as biochemical. The text has this:
(§3) The Time-Resolved Fluorescence Resonance Energy Transfer (TR-FRET) assay kit (Life Technologies) was used to measure compound efficacy to disrupt or enhance ligand-mediated interaction of the co-activator and co-repressor peptides with the purified GST-tagged (i) RORγ LBD or (ii) RORα LBD. The RORγ LBD and RORα LBD each have a basal level of interaction with the co-activator D22 or co-repressor NCoR1-D2 in the absence of ligand, thus it is possible to identify compounds that inhibit or induce RORγ and/or RORα co-activator/co-repressor interactions, thus determining RORα, RORγ, or RORα/RORγ compound selectivity. The assay was performed as per manufacturer's instructions and TR-FRET was assessed 2 and 20 hours post-assay initiation. Compounds were identified to (i) have no impact on either co-activator displacement or […] from the assessed LBD (ii) promote co-activator displacement from the assessed LBD (iii) promote co-repressor recruitment to the assessed LBD or (iv) concurrently promote co-activator displacement from the assessed LBD and co-repressor recruitment to the assessed LBD.
In general terms: In TR-FRET formats the signal depends on donor and acceptor labels being close together.

A further test addresses T2, RORγ LBD (Homo sapiens, UniProt P51449).
T2 sequence (P51449 269-508 limits assumed): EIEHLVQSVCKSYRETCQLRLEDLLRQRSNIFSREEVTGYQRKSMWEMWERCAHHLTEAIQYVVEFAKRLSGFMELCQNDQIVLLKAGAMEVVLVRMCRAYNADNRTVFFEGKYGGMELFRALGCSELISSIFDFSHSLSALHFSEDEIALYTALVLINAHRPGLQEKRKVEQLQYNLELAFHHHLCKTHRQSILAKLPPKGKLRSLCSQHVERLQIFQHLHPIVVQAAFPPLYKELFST
Description: TR-FRET NCoR1-D2 co-repressor recruitment to RORγ LBD. It is filed as biochemical. Also noted: purified GST-tagged (i) RORγ LBD or (ii) RORα LBD; purchased Life Technologies.
Source text: as §3

[3] abbreviates: TR-FRET assessed 2 hr post-assay initiation, read-out: RORα EC50 NCoR1-D2 co-repressor recruitment, 2 hr.
The mark [4] stands for this setting: TR-FRET assessed 20 hr post-assay initiation, read-out: RORα EC50 NCoR1-D2 co-repressor recruitment, 20 hr.
Setting [5] is: TR-FRET assessed 2 hr post-assay initiation, read-out: RORγ EC50 NCoR1-D2 co-repressor recruitment, 2 hr.
Where [6] appears, read: TR-FRET assessed 20 hr post-assay initiation, read-out: RORγ EC50 NCoR1-D2 co-repressor recruitment, 20 hr.

Regarding `Cc1n[nH]c(-c2ccc3c(c2)CCCN3Cc2ccc(C(O)(C(F)(F)F)C(F)(F)F)cc2)n1` [Example 3, 1,1,1,3,3,3-hexafluoro-2-(4-((6-(3-methyl-1H-1,2,4-triazol-5-yl)-3,4-dihydroquinolin-1(2H)-yl)methyl)phenyl)propan-2-ol], in the test with IL-17F [1], the IC50 is under 10 µM. Also, the inhibition at 3 µM in the test on TH17 cells is over 50%. For the same molecule, in the test on IL-17F [2], the “Fold change in mRNA levels of compound treated TH17 cells relative to DMSO treated cells, IL-17F” value is recorded as “B”. For the same molecule, in the test on FOXP3, the “Fold change in mRNA levels of compound treated TH17 cells relative to DMSO treated cells, FOXP3” value is “A”. Moreover, the EC50 at RORα LBD (setting [3]) was over 30 µM; on RORα LBD (setting [4]), under 30 µM; at RORγ LBD (setting [5]), over 30 µM; on RORγ LBD (setting [6]) it was under 30 µM.
`Cc1cc(-c2ccc3c(c2)CCC(=O)N3Cc2ccc(C(O)(C(F)(F)F)C(F)(F)F)cc2)[nH]n1` [Example 4, 1-(4-(1,1,1,3,3,3-hexafluoro-2-hydroxypropan-2-yl)benzyl)-6-(3-methyl-1H-pyrazol-5-yl)-3,4-dihydroquinolin-2(1H)-one] returned an IC50 with IL-17F [1] of under 10 µM. Also, the inhibition at 3 µM in the test on TH17 cells was at most 50%. The “Fold change in mRNA levels of compound treated TH17 cells relative to DMSO treated cells, IL-17F” value in the test with IL-17F [2] is “B”. Further, the “Fold change in mRNA levels of compound treated TH17 cells relative to DMSO treated cells, FOXP3” value in the test with FOXP3 was “A”. In addition, the EC50 was over 30 µM on RORα LBD (setting [3]), under 30 µM at RORα LBD (setting [4]), over 30 µM at RORγ LBD (setting [5]) and under 30 µM at RORγ LBD (setting [6]).
On to `Cc1n[nH]c(-c2ccc3c(c2)CCC(=O)N3Cc2ccc(C(O)(C(F)(F)F)C(F)(F)F)cc2)n1` [Example 6, 1-(4-(1,1,1,3,3,3-hexafluoro-2-hydroxypropan-2-yl)benzyl)-6-(3-methyl-1H-1,2,4-triazol-5-yl)-3,4-dihydroquinolin-2(1H)-one], for which the IC50 with IL-17F [1] is over 10 µM. The inhibition at 3 µM in the test on TH17 cells is at most 50%. Besides, the “Fold change in mRNA levels of compound treated TH17 cells relative to DMSO treated cells, IL-17F” value with IL-17F [2] was “B”. Moreover, the “Fold change in mRNA levels of compound treated TH17 cells relative to DMSO treated cells, FOXP3” value with FOXP3 is listed as “C”. Further, the EC50 on RORα LBD (setting [3]), on RORα LBD (setting [4]), on RORγ LBD (setting [5]) and at RORγ LBD (setting [6]) was over 30 µM each time.
Take `O=C1CCc2cc(-c3cn[nH]c3)ccc2N1Cc1ccc(C(O)(C(F)(F)F)C(F)(F)F)cc1` [Example 5, 1-(4-(1,1,1,3,3,3-hexafluoro-2-hydroxypropan-2-yl)benzyl)-6-(1H-pyrazol-4-yl)-3,4-dihydroquinolin-2(1H)-one]: in the test with IL-17F [1], the IC50 was under 10 µM. In the test with TH17 cells, the inhibition at 3 µM was at most 50%. Besides, the “Fold change in mRNA levels of compound treated TH17 cells relative to DMSO treated cells, IL-17F” value in the test with IL-17F [2] is “A”. Besides, in the test on FOXP3, the “Fold change in mRNA levels of compound treated TH17 cells relative to DMSO treated cells, FOXP3” value is on record as “A”. For the same molecule, the EC50 at RORα LBD (setting [3]) was under 30 µM; at RORα LBD (setting [4]), over 30 µM; on RORγ LBD (setting [5]) it was over 30 µM; at RORγ LBD (setting [6]), under 30 µM.
In the test on IL-17F [1], `OC(c1ccc(CN2CCCc3cc(-c4cn[nH]c4)ccc32)cc1)(C(F)(F)F)C(F)(F)F` [Example 2, 2-(4-((6-(1H-pyrazol-4-yl)-3,4-dihydroquinolin-1(2H)-yl)methyl)phenyl)-1,1,1,3,3,3-hexafluoropropan-2-ol] yielded an IC50 of under 10 µM. For the same molecule, the inhibition at 3 µM in the test on TH17 cells is over 50%. In addition, the “Fold change in mRNA levels of compound treated TH17 cells relative to DMSO treated cells, IL-17F” value in the test on IL-17F [2] is reported as “B”. In the test on FOXP3, the “Fold change in mRNA levels of compound treated TH17 cells relative to DMSO treated cells, FOXP3” value was “C”. The EC50 at RORα LBD (setting [3]), at RORα LBD (setting [4]), on RORγ LBD (setting [5]) and at RORγ LBD (setting [6]) was under 30 µM in each case.
For `Cc1cc(-c2ccc3c(c2)CCCN3Cc2ccc(C(O)(C(F)(F)F)C(F)(F)F)cc2)[nH]n1` [Example 1, 1,1,1,3,3,3-hexafluoro-2-(4-((6-(3-methyl-1H-pyrazol-5-yl)-3,4-dihydroquinolin-1(2H)-yl)methyl)phenyl)propan-2-ol], in the test on IL-17F [1], the IC50 was under 10 µM. Besides, the inhibition at 3 µM in the test on TH17 cells is over 50%. In the test on IL-17F [2], the “Fold change in mRNA levels of compound treated TH17 cells relative to DMSO treated cells, IL-17F” value is listed as “B”. The “Fold change in mRNA levels of compound treated TH17 cells relative to DMSO treated cells, FOXP3” value in the test with FOXP3 is on record as “C”. For the same molecule, the EC50 was under 30 µM at RORα LBD (setting [3]), under 30 µM on RORα LBD (setting [4]), over 30 µM at RORγ LBD (setting [5]) and under 30 µM on RORγ LBD (setting [6]).

One may read the IC50 as the concentration needed to halve the response being measured. The term EC50 denotes the concentration that produces a half-maximal response.
